Test results taken from US20160175249A1, “Liposomes Containing Oligopeptide Fragments of Myelin Basic Protein, a Pharmaceutical Composition and a Method for Treatment of Multiple Sclerosis” (LIPOXEN TECHNOLOGIES LIMITED, priority 2009, published 2016).

Key:
Format in all cases: in vivo
[1] = tested on: experimental autoimmune encephalomyelitis (EAE) in DA rats; test: EAE in DA rats treated with MBP peptides in mannosylated SUV liposomes (Example 10)
Method: All animal studies were carried out in animal facilities of Assaf Harofeh Medical Center (Zerifin, Israel) using standard approved practices for animal care. Induction of EAE was performed in 8-9 weeks Dark Agouti (DA) female rats. Briefly, rats were injected intradermally at the base of the tail with a total volume of 200 μl of inoculum, containing […] of MBP(63-81) (ANASPEC), in saline mixed (1:1) with CFA, (incomplete Freund's adjuvant (IFA), Sigma), and 1 mg MT (strain H37 RA; Difco Laboratories, Detroit, Mich.). Animals developing symptoms of MS were included to the study. Rats were treated with different liposomes formulations (Table 3), copaxone, or placebo (vehicle) under similar conditions for 6 days. All formulations were administrated by one subcutaneous injection per day. Animals were followed up till day 28th post EAE induction. Clinical signs score was performed daily during all study periods. Score gradation was the following: 0—Normal 1—tail weakness, 2—hind leg weakness or paralysis, 3—hind leg paralysis, dragging hind limbs, 4—complete paralysis, unable to move, 5—death.
Liposomes were assembled from a mixture of egg phosphatidylcholine (PC) and one molar percent mannosylated DOG (ManDOG) (Durova OM, supra). Assembly of SUV liposomes was performed as illustrated in FIG. 3: (i) formation of irregular lipid layers during evaporation of organic solvent, followed by re-hydration leading to the multi-layer multilamellar vesicle (MLV) liposomes formation; (ii) high-pressure homogenization resulting in formation of empty SUV; (iii) freeze drying of SUV liposomes with peptides—at this stage peptides are located between collapsed SUV liposomes; and (iv) encapsulation of peptides during second re-hydration into the SUV liposomes with an average diameter of approximately 60-100 nm, containing 1.0% mannose residues on their surface. Four formulations were used for this study: each B cell epitope MBP peptide (MBP1, MBP2, and MBP3) individually and a 1:1:1 mixture (by mass) of all three peptides.
Small unilamellar vesicles (SUV) were prepared from egg phosphatidylcholine (PC) and mannosylated DOG (Espuelas S. et al., Synthesis of an amphiphilic tetraantennary mannosyl conjugate and incorporation into liposome carriers, 2003 Bioorg Med Chem Lett., August 4; 13(15):2557-60, the contents of which are hereby incorporated by reference in their entirety for all purposes) (1:100 molar ratio) by high pressure homogenization (Durova OM, supra). Briefly, lipid mixture (100 mg/ml) in CHCl3 was dried under vacuum, further re-suspended in Milli-Q water to a final lipid concentration 50 mg/ml, followed by high-pressure homogenization (20,000 psi). Resulting SUV were mixed with peptides (lipid to peptide ratio 330:1) together with excess sugar (lactose to lipid ratio 3:1) with subsequent freeze-drying. Following rehydration under controlled conditions, the resulting SUV liposomes were washed by centrifugation to remove non-incorporated materials. The washed pellets were re-suspended in PBS to the required dose volume. Peptide incorporation was estimated on the basis of reversed-phase HPLC using linear gradient of acetonitrile applied on C18 column. The z-average diameter and zeta potential of liposomes were measured on a Brookhaven ZetaPlus zetasizer at 25° C. by diluting […] of the dispersion to the required volume with 1 mM PBS or appropriate media.
To test the therapeutic potential of the four formulations, DA rates presenting with induced EAE were subcutaneously injected with one of the four mannosylated liposomal formulations, copaxone (positive control), free (un-encapsulated) MBPI peptide (negative control), and empty mannosylated liposomes (vehicle control; Table 3).
Treatment of each rat was initiated at the first sign of EAE clinical manifestation. […]

[2] = tested on: EAE-induced DA rats; test: EAE-induced DA rat model, paralysis score and mortality (DA-EAE-28-01, Example 12); conditions: daily s.c. injection, 6 total
Method: Each of the seven formulations being evaluated was provided as a lyophilized powder and stored at 4° C. Rehydration of each daily group dose was done with water for injection according to Table 6. MBP peptide formulations were re-suspended in water for injection (Cure Medical) and copaxone (Teva LTD) was diluted with Saline to a final concentration of 150 μg/mL. Each subject animal was administered the test formulation for 6 consecutive days by subcutaneous injection.
9 week old Dark Agouti (DA) female rats (Harlan Laboratories, Inc.), weighing between 125 and 145 grams were used as the test subjects. The health status of the animals used in this study was examined on arrival. Only animals in good health were acclimatized to laboratory conditions and were used in the study. Animals were provided Protein Rodent Diet (Teklad) ad libitum and free access to drinking water. Animals were housed in a controlled environment at between 20° C. and 24° C. with a relative humidity of 30-70% and a 12 hr light/12 hr dark cycle. Animals were randomly assigned to their respective test group. This study was performed following the review by the Committee for Ethical Conduct in the Care and Use of Laboratory Animals of the Assaf Harofeh medical center, Beer Yaakov, Ethical Committee number: 68/2009.
For induction of EAE, rats were intradermally injected at the base of the tail with a total volume of 200 μl of inoculum containing 50 μg of MBP(63-81) (ANASPEC), in saline mixed (1:1) with CFA, (IFA, Sigma) and 1 mg Mt (strain H37 RA; Difco Laboratories, Detroit, Mich.).
The rats were evaluated up daily starting 24 hours after immunization. […]
7-10 days post EAE induction, 54 animals were divided to 9 groups (6 rats in each), and blood was collected from 2 rats of each group before the initiation of the treatment. […] The animals were maintained and evaluated until day 28th post EAE-induction. […]
Animals were observed individually and clinical signs were recorded once daily during all study periods. […] The body weight of each animals was determined daily during all study periods. […]

[3] = tested on: multiple sclerosis (cerebrospinal form, remissive course); test: Treatment of a human subject diagnosed with multiple sclerosis (Example 7); conditions: patient, 500 mg once every two weeks
From the text: A patient diagnosed with multiple sclerosis (cerebrospinal form, remissive course), in the relapse stage, was previously subjected to repeated corticosteroid treatment. […] At the time of treatment, the patient presented with: lateral nystagmus when looking to the right, active tendon reflex, S<D in the legs, active upper abdominal reflex, absent middle and lower abdominal reflex, bilateral Babinski's symptom, foot clonus (more expressed in the right foot), no paresis in the extremities, muscle tonicity unchanged, ataxic gait, loss of balance in the Romberg stance, ataxia when performing hccl-shin test, and urine retention. The value of the patient's neurological deficit on the EDSS scale was 6.
The patient also presented with ophthalmic blanching of temporal halves of optic nerve heads. After studying the patient's PBMC, the activity of T-lymphocytcs with respect to MBP was determined at a stimulation index (SI) of 7.45. Levels of serum IgG antibodies were 75 units per ml.
With the patient's consent, the prototype peptide composition was administered once every two weeks at a dosage of 500 mg. 7 days after each injection, the patient's peripheral (venous) blood was sampled in order to determine changes in T-lymphocyte activity with respect to MBP, as well as autoantibody levels. […] At week four, the patients IgG autoantibody level increased to 112 units per mL, and T-cell SI doubled. […]

[4] = tested on: experimental allergic encephalomyelitis (EAE) in DA rats; test: Treatment of EAE in DA rats with liposomally encapsulated MBP peptides (Example 5); conditions: 150 μg per animal daily subdermally days 6-11, score 0-5
Method: To induce experimental allergic encephalomyelitis (EAE) in DA rats having a mass of 220-250 g ([…]), 10 μg of myelin basic protein encephalogenic peptide fragment ARTTHYGSLPQKSQRSQ (SEQ ID NO:4; Anaspec, US) emulsified in Freund's complete adjuvant (Difco, US) at a concentration of 10% (m/v) was subdermally injected into the forepaw. The rats were weighted and monitored for EAE neurological symptoms daily. The EAE symptom profile of each rate was scored according to the following scale: (0)—absence of EAE symptoms; (1)—decrease in tail tonicity; (2)—decrease in righting reflex; (3)—paresis; (4)—full paralysis; and (5)—agony or death. Intermediary symptoms were scored by increasing or decreasing the value by 0.5 units. Six days after EAE induction, animals were randomly distributed into several groups (12 animals each).
Between days six and eleven after induction, rats in each respective group were subdermally injected with the liposomal preparation described in Example 2 (emulsified in phosphate saline solution, pH 7.4), a positive control preparation of glatiramer acetate (GA; copaxone, Teva Pharmaceutical Industries Ltd, Israel), a prototype peptide: DENPVVIIFFKNIVTPRT (SEQ ID NO:5), or a buffered phosphate saline solution (pH 7.4) placebo. The peptide, Glatiramer acetate, and liposomal preparations were formulated immediately prior to administration using buffered phosphate saline solution (pH 7.4). 0.1 mL of each composition was administered daily at a concentration of 150 μg per animal.

GGDRGAPKRGSGKDSHH (MBP peptide) [MBP1, myelin basic protein fragment MBP(46-62), free un-encapsulated peptide]
mean disease score course (FIG. 4) ([1]; 6 daily s.c. injections from first clinical sign): did not provide any beneficial effects
Mortality ([1]; one s.c. injection per day, 6 injections, deaths/N): 1/15
Median Cumulative Disease Score ([1]; one s.c. injection per day, 6 injections, doses per Table 3): 19.5
Median Maximal Disease Score (IQR) ([1]; one s.c. injection per day, 6 injections, doses per Table 3, score 0-5): 3 (0.5)^2
Mortality Rate ([2]; 54 EAE induced DA rats, peptide dose 50 μg (mixtures 150 μg), deaths/N): 1/6
efficacy, overall disease score ([2]; comparison between groups): comparable

DENPVVIIFFKNIVTPRT (a prototype peptide) [prototype peptide used as comparator]
clinical presentation of MS ([3]; over the course of 7 weeks): progressed slightly
T-cell SI ([3]; week four, before treatment 7.45): doubled
Evaluation of EAE symptom intensity, average ([4]; day 0 after EAE induction): 0.00
Evaluation of EAE symptom intensity, average ([4]; day 1 after EAE induction): 0.00
Evaluation of EAE symptom intensity, average ([4]; day 2 after EAE induction): 0.00
Evaluation of EAE symptom intensity, average ([4]; day 3 after EAE induction): 0.00
Evaluation of EAE symptom intensity, average ([4]; day 4 after EAE induction): 0.00
Evaluation of EAE symptom intensity, average ([4]; day 5 after EAE induction): 0.00
Evaluation of EAE symptom intensity, average ([4]; day 6 after EAE induction): 0.00
Evaluation of EAE symptom intensity, average ([4]; day 7 after EAE induction): 0.00
Evaluation of EAE symptom intensity, average ([4]; day 8 after EAE induction): 0.58
Evaluation of EAE symptom intensity, average ([4]; day 9 after EAE induction): 1.33
Evaluation of EAE symptom intensity, average ([4]; day 10 after EAE induction): 2.42
Evaluation of EAE symptom intensity, average ([4]; day 11 after EAE induction): 2.33
Evaluation of EAE symptom intensity, average ([4]; day 12 after EAE induction): 2.50
Evaluation of EAE symptom intensity, average ([4]; day 13 after EAE induction): 2.17
Evaluation of EAE symptom intensity, average ([4]; day 14 after EAE induction): 2.00
Evaluation of EAE symptom intensity, average ([4]; day 15 after EAE induction): 1.83
Evaluation of EAE symptom intensity, average ([4]; day 16 after EAE induction): 1.67
Evaluation of EAE symptom intensity, average ([4]; day 17 after EAE induction): 1.33
Evaluation of EAE symptom intensity, average ([4]; day 18 after EAE induction): 1.42
Evaluation of EAE symptom intensity, average ([4]; day 19 after EAE induction): 1.08
Evaluation of EAE symptom intensity, average ([4]; day 20 after EAE induction): 0.83
Evaluation of EAE symptom intensity, average ([4]; day −1 after EAE induction): 0.00
